Source: paper PMC12775434, “Ultra-large virtual screening unveils potent agonists of the neuromodulatory orphan receptor GPR139” (Nature Communications, 2025)
Values joined by “and” are separate entries in the source; they are usually repeats but may differ in a detail not shown here. Equal values may be shown once. Read-outs that look alike come from different tables or passages of the source.

Biological target: T1, GPR139 (Homo sapiens, UniProt Q6DWJ6)
T1 sequence (Q6DWJ6 1-353): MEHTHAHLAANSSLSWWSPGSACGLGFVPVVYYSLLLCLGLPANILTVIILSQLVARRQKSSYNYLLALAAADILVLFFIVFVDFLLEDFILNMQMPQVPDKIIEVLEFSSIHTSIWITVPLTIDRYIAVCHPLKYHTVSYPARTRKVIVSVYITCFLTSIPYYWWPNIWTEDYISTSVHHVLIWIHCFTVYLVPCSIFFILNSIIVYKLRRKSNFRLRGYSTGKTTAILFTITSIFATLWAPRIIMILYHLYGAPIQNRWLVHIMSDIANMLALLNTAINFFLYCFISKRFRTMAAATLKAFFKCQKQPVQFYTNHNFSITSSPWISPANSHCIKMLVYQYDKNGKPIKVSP
Experiment: Ca2+ mobilization assay, agonist mode, stable GPR139-CHOk1 cell line
Assay type: cell-based
Details: for Emax: normalized to Lundbeck Cmp 1a
How it was run: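 Agonist activity of compounds is assessed in stably transfected CHO-K1 cells using the calcium dye Fluo-4 at 37 °C in HEPES-buffered HBSS (pH 7.4). Efficacy is expressed relative to the reference agonist Lundbeck Cmp 1a, set as 100%.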

[1] = Supplementary Table 7, read-out: Emax (%), Ca2+ mobilization
[2] = log [Compound] M -12.0, individual replicates
[3] = log [Compound] M = -5.5, individual replicate columns
[4] = log [Compound] M = -6.0, individual replicate columns
[5] = log [Compound] M = -6.5, individual replicate columns
[6] = log [Compound] M = -7.0, individual replicate columns
[7] = log [Compound] M = -7.5, individual replicate columns
[8] = log [Compound] M = -8.0, individual replicate columns
[9] = log [Compound] M = -8.5, individual replicate columns
[10] = log [Compound] M = -9.0, individual replicate columns
[11] = GPR139-CHOk1, read-out: EC50, Ca2+ mobilization

CC(NC(=O)CNC(=O)c1cccc(Cl)c1)c1ccccc1 (stereo not drawn) [JNJ-63533054, reference compound]
Emax (Supplementary Table 4, read-out: Emax (%), Ca2+ mobilization): 100 ± 2% | EC50 (Supplementary Table 4, read-out: pEC50, Ca2+ mobilization (converted)): 63.1 nM | EC50 (Supplementary Table 7, enantiopure compounds, read-out: pEC50, Ca2+ mobilization (converted)): 15.8 nM | Emax [1]: 119 ± 6% | Ca2+ signal (% of Cmp 1a) (log [Compound] M -5.5, replicate experiments): 100 % of Cmp 1a | Ca2+ signal (% of Cmp 1a) (log [Compound] M -6.0, replicate experiments): 91 % of Cmp 1a and 96 % of Cmp 1a and 95 % of Cmp 1a | Ca2+ signal (% of Cmp 1a) (log [Compound] M -6.5, replicate experiments): 91 % of Cmp 1a and 78 % of Cmp 1a and 84 % of Cmp 1a | Ca2+ signal (% of Cmp 1a) (log [Compound] M -7.0, replicate experiments): 68 % of Cmp 1a and 62 % of Cmp 1a and 69 % of Cmp 1a | Ca2+ signal (% of Cmp 1a) (log [Compound] M -7.5, replicate experiments): 36 % of Cmp 1a and 26 % of Cmp 1a and 32 % of Cmp 1a | Ca2+ signal (% of Cmp 1a) (log [Compound] M -8.0, replicate experiments): 25 % of Cmp 1a and 21 % of Cmp 1a and 8 % of Cmp 1a | Ca2+ signal (% of Cmp 1a) (log [Compound] M -8.5, individual replicates, listed as JNJ (S)): 33 % of Cmp 1a and 17 % of Cmp 1a and 31 % of Cmp 1a | Ca2+ signal (% of Cmp 1a) (log [Compound] M -8.5, replicate experiments): 11 % of Cmp 1a and 1.8 % of Cmp 1a and -4.36 % of Cmp 1a | Ca2+ signal (% of Cmp 1a) (log [Compound] M -9.0, individual replicates, listed as JNJ (S)): 12 % of Cmp 1a and 6 % of Cmp 1a and 21 % of Cmp 1a | Ca2+ signal (% of Cmp 1a) (log [Compound] M -9.0, replicate experiments): 0 % of Cmp 1a | Ca2+ signal (% of Cmp 1a) [2]: 0 % of Cmp 1a | Ca2+ signal (% of Cmp 1a) [3]: 100 % of Cmp 1a | Ca2+ signal (% of Cmp 1a) [4]: 96 % of Cmp 1a and 95 % of Cmp 1a and 91 % of Cmp 1a | Ca2+ signal (% of Cmp 1a) [5]: 78 % of Cmp 1a and 84 % of Cmp 1a and 91 % of Cmp 1a | Ca2+ signal (% of Cmp 1a) [6]: 62 % of Cmp 1a and 69 % of Cmp 1a and 68 % of Cmp 1a | Ca2+ signal (% of Cmp 1a) [7]: 26 % of Cmp 1a and 32 % of Cmp 1a and 36 % of Cmp 1a | Ca2+ signal (% of Cmp 1a) [8]: 21 % of Cmp 1a and 8 % of Cmp 1a and 25 % of Cmp 1a | Ca2+ signal (% of Cmp 1a) [9]: 1.8 % of Cmp 1a and -4.36 % of Cmp 1a and 11 % of Cmp 1a | Ca2+ signal (% of Cmp 1a) [10]: 0 % of Cmp 1a | Ca2+ signal (% of Cmp 1a) (log [compound] M -4.5, individual replicates, listed as JNJ (S)): 119 % of Cmp 1a and 120 % of Cmp 1a and 108 % of Cmp 1a | Ca2+ signal (% of Cmp 1a) (log [compound] M -5.0, individual replicates, listed as JNJ (S)): 106 % of Cmp 1a and 110 % of Cmp 1a and 122 % of Cmp 1a | Ca2+ signal (% of Cmp 1a) (log [compound] M -5.5, individual replicates, listed as JNJ (S)): 100 % of Cmp 1a and 103 % of Cmp 1a and 143 % of Cmp 1a | Ca2+ signal (% of Cmp 1a) (log [compound] M -6.0, individual replicates, listed as JNJ (S)): 91 % of Cmp 1a and 107 % of Cmp 1a and 141 % of Cmp 1a | Ca2+ signal (% of Cmp 1a) (log [compound] M -6.5, individual replicates, listed as JNJ (S)): 93 % of Cmp 1a and 118 % of Cmp 1a and 122 % of Cmp 1a | Ca2+ signal (% of Cmp 1a) (log [compound] M -7.0, individual replicates, listed as JNJ (S)): 76 % of Cmp 1a and 120 % of Cmp 1a and 95 % of Cmp 1a | Ca2+ signal (% of Cmp 1a) (log [compound] M -7.5, individual replicates, listed as JNJ (S)): 65 % of Cmp 1a and 92 % of Cmp 1a and 71 % of Cmp 1a | Ca2+ signal (% of Cmp 1a) (log [compound] M -8.0, individual replicates, listed as JNJ (S)): 46 % of Cmp 1a and 57 % of Cmp 1a and 54 % of Cmp 1a

Cc1nocc1-c1nc(CC(=O)NC(C)c2ccccc2)no1 (stereo not drawn) [Compound 1.5, CC(C1=CC=CC=C1)NC(CC2=NOC(C3=CON=C3C)=N2)=O]
Ca2+ signal (% of Cmp 1a) (Agonist mode, individual replicates (Supplementary Figure 4)): 113 % of Cmp 1a and 100 % of Cmp 1a and 116 % of Cmp 1a | EC50 [11]: 130 nM | Emax (Supplementary Table 2, mean ± SEM, read-out: Emax (%) Ca2+): 103 ± 6% | Ca2+ signal (% of Cmp 1a) (log [Compound] M = -4.5, individual replicate columns): 80 % of Cmp 1a and 113 % of Cmp 1a and 109 % of Cmp 1a and 101 % of Cmp 1a | Ca2+ signal (% of Cmp 1a) (log [Compound] M = -5.0, individual replicate columns): 104 % of Cmp 1a and 119 % of Cmp 1a and 100 % of Cmp 1a and 95 % of Cmp 1a | Ca2+ signal (% of Cmp 1a) [3]: 91 % of Cmp 1a and 108 % of Cmp 1a and 100 % of Cmp 1a and 85 % of Cmp 1a | Ca2+ signal (% of Cmp 1a) [4]: 78 % of Cmp 1a and 79 % of Cmp 1a and 91 % of Cmp 1a and 81 % of Cmp 1a | Ca2+ signal (% of Cmp 1a) [5]: 55 % of Cmp 1a and 74 % of Cmp 1a and 73 % of Cmp 1a and 76 % of Cmp 1a | Ca2+ signal (% of Cmp 1a) [6]: 36 % of Cmp 1a and 45 % of Cmp 1a and 52 % of Cmp 1a and 57 % of Cmp 1a | Ca2+ signal (% of Cmp 1a) [7]: 14 % of Cmp 1a and 3.67 % of Cmp 1a and 9 % of Cmp 1a and 12 % of Cmp 1a | Ca2+ signal (% of Cmp 1a) [8]: 17 % of Cmp 1a and 2 % of Cmp 1a and 47 % of Cmp 1a and -11 % of Cmp 1a | Ca2+ signal (% of Cmp 1a) [9]: 10 % of Cmp 1a and -6.33 % of Cmp 1a and 1 % of Cmp 1a and -17 % of Cmp 1a | Ca2+ signal (% of Cmp 1a) [10]: -2.67 % of Cmp 1a and 0.333 % of Cmp 1a and -5 % of Cmp 1a and -15 % of Cmp 1a

Cc1cscc1-c1nc(CC(=O)N[C@@H](C)c2ccccc2)no1 [1.1(S)]
EC50 [11]: 8 nM | Emax [1]: 121 ± 11% | Ca2+ signal (% of Cmp 1a) (log [Compound] M -8.5, individual replicates): 28 % of Cmp 1a and 50 % of Cmp 1a and 51 % of Cmp 1a | Ca2+ signal (% of Cmp 1a) (log [Compound] M -9.0, individual replicates): 24 % of Cmp 1a and 31 % of Cmp 1a and 22 % of Cmp 1a | Ca2+ signal (% of Cmp 1a) [2]: 0 % of Cmp 1a | Ca2+ signal (% of Cmp 1a) (log [compound] M -4.5, individual replicates): 102 % of Cmp 1a and 114 % of Cmp 1a and 136 % of Cmp 1a | Ca2+ signal (% of Cmp 1a) (log [compound] M -5.0, individual replicates): 108 % of Cmp 1a and 117 % of Cmp 1a and 136 % of Cmp 1a | Ca2+ signal (% of Cmp 1a) (log [compound] M -5.5, individual replicates): 90 % of Cmp 1a and 125 % of Cmp 1a and 141 % of Cmp 1a | Ca2+ signal (% of Cmp 1a) (log [compound] M -6.0, individual replicates): 102 % of Cmp 1a and 120 % of Cmp 1a and 136 % of Cmp 1a | Ca2+ signal (% of Cmp 1a) (log [compound] M -6.5, individual replicates): 96 % of Cmp 1a and 104 % of Cmp 1a and 131 % of Cmp 1a | Ca2+ signal (% of Cmp 1a) (log [compound] M -7.0, individual replicates): 104 % of Cmp 1a and 95 % of Cmp 1a and 127 % of Cmp 1a | Ca2+ signal (% of Cmp 1a) (log [compound] M -7.5, individual replicates): 92 % of Cmp 1a and 77 % of Cmp 1a and 113 % of Cmp 1a | Ca2+ signal (% of Cmp 1a) (log [compound] M -8.0, individual replicates): 61 % of Cmp 1a and 62 % of Cmp 1a and 73 % of Cmp 1a
